Test results reported in ChEMBL document CHEMBL1201862, “PubChem BioAssay data set” (2004).
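The compound was tested at five concentrations on cells cultured in 96-well plates, with a 48-hour exposure period. GI50 marks 50% less growth.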 Activity calls are given as the source filed them. Cut-off read from the data, not from the text of the source: active = GI50 up to about 1.1 µM and inactive = higher.

Experiments:
Test in all cases: NCI anticancer screen, dose series, 48 h
ACHN = tested on: ACHN
RPMI-8226 = tested on: RPMI-8226
SF-295 = tested on: SF-295
OVCAR-3 = tested on: OVCAR-3
SF-268 = tested on: SF-268
SK-MEL-2 = tested on: SK-MEL-2
SNB-19 = tested on: SNB-19
HOP-92 = tested on: HOP-92
SK-MEL-28 = tested on: SK-MEL-28
NCI-H226 = tested on: NCI-H226
A549 = tested on: A549
RXF 393 = tested on: RXF 393
UO-31 = tested on: UO-31
NCI-H522 = tested on: NCI-H522
SK-OV-3 = tested on: SK-OV-3
COLO 205 = tested on: COLO 205

Measured: GI50

CC(=O)CCn1ncc(Cl)c(Cl)c1=O
inactive: ACHN 17 µM | RPMI-8226 14.2 µM | SF-295 19.1 µM | OVCAR-3 13.7 µM | SF-268 12.1 µM | SK-MEL-2 14.2 µM | SNB-19 18 µM | HOP-92 17 µM | SK-MEL-28 13.8 µM | NCI-H226 16.7 µM | A549 23 µM | RXF 393 17.3 µM | UO-31 20 µM

O=[N+]([O-])c1cc(I)cc(/C=N/NS(=O)(=O)c2ccc(F)cc2)c1O
inactive: NCI-H522 20.7 µM | ACHN 30.7 µM | RPMI-8226 22.1 µM | SF-295 33.2 µM | OVCAR-3 19 µM | SF-268 28.9 µM | SK-OV-3 27.4 µM | SK-MEL-2 18 µM | SNB-19 31 µM | HOP-92 18.3 µM | SK-MEL-28 29.4 µM | A549 35.5 µM | RXF 393 27 µM | UO-31 26.2 µM | COLO 205 18.3 µM

CCOC(=O)C(=O)Nc1c(C(C)C)cccc1C(C)C
inactive: NCI-H522 > 100 µM | ACHN > 100 µM | SF-295 > 100 µM | OVCAR-3 > 100 µM | SF-268 > 100 µM | SK-OV-3 > 100 µM | SK-MEL-2 > 100 µM | SNB-19 > 100 µM | HOP-92 > 100 µM | SK-MEL-28 > 100 µM | NCI-H226 > 100 µM | A549 > 100 µM | RXF 393 > 100 µM | UO-31 > 100 µM | COLO 205 > 100 µM

CC1=N/C(=C\c2cccc([N+](=O)[O-])c2)C(=O)O1
inactive: NCI-H522 > 100 µM | ACHN > 100 µM | RPMI-8226 > 100 µM | SF-295 > 100 µM | SF-268 > 100 µM | SK-MEL-2 > 100 µM | SNB-19 > 100 µM | HOP-92 > 100 µM | SK-MEL-28 > 100 µM | A549 > 100 µM | RXF 393 > 100 µM | UO-31 > 100 µM | COLO 205 > 100 µM

[O-][S+]1c2ccccc2N=C(c2ccc3ccccc3c2)CC1c1ccccc1F (centres undefined)
inactive: NCI-H522 72.3 µM | ACHN > 100 µM | RPMI-8226 58.6 µM | SF-295 > 100 µM | OVCAR-3 > 100 µM | SF-268 > 100 µM | SK-OV-3 > 100 µM | SK-MEL-2 > 100 µM | SNB-19 > 100 µM | SK-MEL-28 > 100 µM | NCI-H226 82.2 µM | A549 > 100 µM | RXF 393 > 100 µM | UO-31 > 100 µM | COLO 205 > 100 µM

COc1ccc(CCn2c(=O)c3ccccc3n(C)c2=O)cc1
inactive: NCI-H522 24.2 µM | ACHN > 100 µM | RPMI-8226 39 µM | SF-295 30.2 µM | OVCAR-3 34.4 µM | SF-268 56.4 µM | SK-OV-3 14.6 µM | SK-MEL-2 20.5 µM | SNB-19 > 100 µM | SK-MEL-28 57.5 µM | A549 50.9 µM | UO-31 40.4 µM | COLO 205 13.1 µM

Cc1cc(C)nc(Sc2c([N+](=O)[O-])ncn2C)n1
inactive: NCI-H522 > 100 µM | ACHN > 100 µM | RPMI-8226 > 100 µM | SF-295 > 100 µM | OVCAR-3 > 100 µM | SF-268 > 100 µM | SK-OV-3 > 100 µM | SK-MEL-2 > 100 µM | SNB-19 > 100 µM | HOP-92 > 100 µM | SK-MEL-28 > 100 µM | NCI-H226 > 100 µM | A549 > 100 µM | UO-31 > 100 µM | COLO 205 > 100 µM
